Like-named read-outs stand apart in the source and are kept apart here.
How the values were obtained:
[1] = Equilibrium loading data for metal salts, batch absorber experiments; format: physicochemical; conditions: atmospheric pressure; for SO2, ppm: equilibrium SO2 concentration; for Loading Capacity (fraction): equilibrium, aqueous absorption solution
Protocol: The following experiments were conducted in a batch absorber wherein a sulfur dioxide-containing gas was fed via a sparger below the liquid level in a vessel containing an aqueous absorption solution comprising various polyprotic carboxylic acid salts and the composition of the exhaust gas was monitored.
The sulfur dioxide-containing inlet gas 101 to be treated comprised nitrogen saturated with water vapor and a controlled concentration of sulfur dioxide. Temperatures (T) and pressure (P) were monitored during the experiment and gas samples (S) were taken at different times during the experiment. T1 and P1 are temperature and pressure sensors of inlet gas 101. S1 is a sampling point for inlet gas 101. T2 is a temperature sensor of the liquid in the vessel. T3 is a temperature sensor of exhaust gas 102.
In these experiments and other experiments reported in the Examples below, the gas concentrations were measured by gas chromatography and liquid concentrations were calculated by material balance.
All experiments were performed at atmospheric pressure. These experiments approach equilibrium concentrations and, in some cases, equilibrium data (denoted Eq. in the legend) are also included in the graphed results. For the equilibrium data, the compositions of the gas and liquid were diluted with excess caustic to maintain the sulfur dioxide in solution.
Total sulfur content was determined using ASTM Standard D1552, “Standard Test Method for Sulfur in Petroleum Products (High-Temperature Method”, DOI: 10.1520/D1552-08, available from ASTM International, West Conshohocken, Pa., www.astm.org.

[2] = cited from earlier work

| SMILES | SO2, ppm ([1]; 50 °C) [ppm] | SO2, ppm ([1]; 100 °C) [ppm] | Loading Capacity (fraction) ([1]; 50 °C) | Loading Capacity (fraction) ([1]; 100 °C) | pKa1 ([2]; 25° C.) | pKa2 ([2]; 25° C.) | pKa1 ([2]; temperature not given) |
| --- | --- | --- | --- | --- | --- | --- | --- |
| O=C([O-])CC(O)(CC(=O)[O-])C(=O)[O-].[K+].[K+].[K+] [K Cit, potassium citrate] | 105.94 | 1162.54 | 0.2754 | 0.2668 |  |  |  |
| O=C(O)CCCC(=O)O [L-Glutaric Acid] |  |  |  |  | 4.31 | 5.41 |  |
| CC(=O)CCC(=O)O [Levulinic Acid] |  |  |  |  | 4.59 |  |  |
| O=C([O-])CC(O)C(=O)[O-].[Na+].[Na+] (stereo not shown) [Na Mal, sodium malate] | 406.6 | 2169.06 | 0.1694 | 0.1416 |  |  |  |
| O=C([O-])c1ccccc1C(=O)[O-].[Na+].[Na+] [Na Pha, sodium phthalate] | 1115.92 | 11303.83 | 0.6530 | 0.7250 |  |  |  |
| O=C([O-])CCC(=O)[O-].[Na+].[Na+] [Na Suc, sodium succinate] | 137.54 | 1387.3 | 0.1045 | 0.2053 |  |  |  |
| O=C(O)c1cccnc1 [Nicotinic acid] |  |  |  |  |  |  | 4.75 |
| O=C(O)c1ccccc1C(=O)O [o-Phthalic Acid] |  |  |  |  | 2.89 | 5.51 |  |
